SMILES strings stand for the structures. Values joined by “and” are separate entries in the source; they are usually repeats but may differ in a detail not shown here. Equal values may be shown once.

Broadly, the melting point is the temperature, or range, at which the solid turns liquid. `CC(C)CC(C)C` [2,4-dimethylpentane] returned a melting point of -119 °C.

Take `COC(=O)c1cccc([N+](=O)[O-])c1` [methyl 3-nitrobenzoate]: the melting point was determined as 79 °C.

Compound `OB(O)c1cc2ccccc2nc1F` [2-fluoroquinoline-3-boronic acid] yielded a melting point of 92 °C.

For the compound `C1CC[C@H]2CCCC[C@@H]2C1` [trans-decahydronaphthalene], the melting point was -32 °C.

Compound `COc1ccc(OC)c2c1C(=O)OC2O` (configuration not stated) [3-hydroxy-4,7-dimethoxy-2-benzofuran-1(3H)-one] came in with a melting point of 192 °C.

In the case of `O=C(c1ccccc1)c1ccc(-c2ccccc2)cc1` [4-benzoylbiphenyl], the melting point was 101 °C.

With `Cc1cc(Br)cc(Cl)c1N` [4-bromo-2-chloro-6-methylaniline], the melting point is 39 °C.

Consider `C1CCCC1` [Cyclopentane], for which the melting point was -94 °C.

In turn, `Cc1ccc(C(=O)O)cc1C` [3,4-dimethylbenzoic acid] yielded a melting point of 166 °C.

Turning to `Cc1cccc(N/N=C(\C#N)c2nc(-c3ccc(Cl)cc3)cs2)c1`, the melting point is 158 °C.

Consider `CC(=O)Oc1ccc(OC(C)=O)cc1` [hydroquinone_diacetate], for which the melting point is 125 °C.

As for `C[N+](C)(C)C[C@H](O)CC(=O)[O-]` [L-Carnitine], the melting point came out at 196 °C.

With `COC(F)(F)C(Cl)Cl` [2,2-Dichloro-1,1-difluoroethyl methyl ether], the melting point is -35 °C.

`N#Cc1ccc(C(c2ccc(C#N)cc2)n2cncn2)cc1` [letrozole] displayed a melting point of 181 °C.

Consider `Nc1ccc(S(=O)(=O)Nc2ccccn2)cc1` [Sulfapyridine], for which the melting point is 192 °C.

With `O=C(O)c1ccccc1CO` [o-hydroxymethyl_benzoic_acid], the melting point was 126 °C.

`N#Cc1ccccc1` [benzonitrile] displayed a melting point of -13 °C.

For the compound `NC(=O)c1ccc(F)c(F)c1` [3,4-difluorobenzamide], the melting point was determined as 133 °C.

As to `C#C[C@]1(O)CC[C@H]2[C@@H]3CCc4cc(O)ccc4[C@H]3CC[C@@]21C` [17alpha-ethynylestradiol], the melting point came out at 144 °C.

Consider `NC1=NCC(c2ccccc2)O1` (configuration not stated) [aminorex], for which the melting point was 136 °C.

For `Cc1ccc(C)c(OCCCC(C)(C)C(=O)O)c1` [gemfibrozil], the melting point came out at 61 °C.

Compound `Cc1cccc(C(=O)O)n1` [6-methylpyridine-2-carboxylic acid] registered a melting point of 129 °C.

For `CC(=O)Oc1ccccc1C(=O)O` [acetylsalicylic acid], the melting point was 135 °C.

In turn, `CCOCOCC` [diethoxymethane] had a melting point of -66 °C.

`O=C(O)CCC(=O)c1cccs1` [4-oxo-4-(2-thienyl)butyric acid] came in with a melting point of 119 °C.

With `C(O)[C@H](O)[C@@H](O)[C@@H](O)CO` [L-arabitol], the melting point came out at 101 °C.

`CCN1CCOCC1` [4-Ethylmorpholine] showed a melting point of -63 °C.

`CCCCc1ccc(B(O)O)cc1` [4-n-butylbenzeneboronic acid]: the melting point was found to be 105 °C.

For the compound `CCOc1ccc(N)cc1` [4-Ethoxyaniline], the melting point is 3 °C.

The compound `O=Cc1c(-c2ccccc2)nc2n1CCS2` [2,3-dihydro-6-phenylimidazo[2,1-b]thiazole-5-carboxaldehyde] returned a melting point of 123 °C.

As to `O=C1Nc2ccc(Cl)cc2C(c2ccccc2Cl)=NC1O` (configuration not stated) [lorazepam], the melting point came to 166 °C.

Turning to `CC(CC(=O)O)CC(C)(C)C` (configuration not stated) [3,5,5-trimethylhexanoic acid], the melting point was -70 °C.

For the compound `O=CC=O` [glyoxal], the melting point stood at 15 °C.

In turn, `CSCC[C@H](NC(=O)OCC1c2ccccc2-c2ccccc21)C(=O)O` [N-fmoc-L-methionine] had a melting point of 134 °C.

`O=C(O)/C(=C/c1cccc([N+](=O)[O-])c1)c1ccccc1` [(E)-2-phenyl-3-(3-nitrophenyl)propenoic acid] showed a melting point of 185 °C.

For `CCCCC1C(=O)N(c2ccccc2)N(c2ccccc2)C1=O` [Phenylbutazone], the melting point worked out at 105 °C.

`c1ccc2c(c1)Cc1ccccc1-2` [fluorene]: the melting point is 116 °C and 115 °C.

The compound `COc1cc(N=C=S)cc(OC)c1` [3,5-dimethoxyphenyl isothiocyanate] showed a melting point of 51 °C.

For `CC=C(/C)C` [2-Methylbut-2-ene], the melting point is -134 °C.

The compound `C[C@@H]1[C@H](O)[C@@H](C)C=CC=CC=CC=CC=CC=CC=C[C@H](O[C@@H]2O[C@H](C)[C@@H](O)[C@H](N)[C@@H]2O)C[C@@H]2O[C@](O)(C[C@@H](O)C[C@@H](O)[C@H](O)CC[C@@H](O)C[C@@H](O)CC(=O)O[C@H]1C)C[C@H](O)[C@H]2C(=O)O` [Amphotericin B] returned a melting point of 170 °C.

Turning to `O=C(O)CCSCCC(=O)O` [3,3'-thiodipropionic acid], the melting point came to 131 °C.

On to `COC(=O)[C@H]1[C@@H](OC(=O)c2ccccc2)C[C@@H]2CC[C@H]1N2C` [cocaine], for which the melting point was found to be 98 °C.

With `Nc1ccn([C@H]2CC[C@@H](CO)O2)c(=O)n1` [Zalcitabine], the melting point came out at 212 °C.

The compound `ClC1=C(Cl)[C@]2(Cl)C3C(Cl)C(Cl)CC3[C@@]1(Cl)C2(Cl)Cl` (some centres not stated) came in with a melting point of 106 °C.

`OB(O)c1c(Cl)cccc1Cl` [2,6-dichlorobenzeneboronic acid]: the melting point stood at 152 °C.

Turning to `N#Cc1ccc2cc[nH]c2c1` [indole-6-carbonitrile], the melting point came out at 130 °C.

Regarding `CO[SiH](OC)OC` [Trimethoxysilane], the melting point was -115 °C.

Consider `C(=N\c1ccccc1)/c1ccccc1` [benzalaniline], for which the melting point is 51 °C and 49 °C and 46 °C.

`O=c1[nH]c2ccc([N+](=O)[O-])cc2o1` [6-nitro-2(3h)-benzoxazolone] displayed a melting point of 246 °C.

The compound `O=C1CN=C(c2ccccc2)c2cc(Cl)ccc2N1CC(F)(F)F` [halazepam] yielded a melting point of 164 °C.

`CC1=CCCC1` [1-methylcyclopentene] returned a melting point of -142 °C.

Turning to `CC(C)CCCC(C)C1CCC2C3CC(O)C4=CC(=O)CCC4(C)C3CCC12C` (configuration not stated) [6-hydroxycholest-4-en-3-one], the melting point came to 155 °C.

With `CCN(CC)C(C)CN1c2ccccc2Sc2ccccc21` (configuration not stated) [ethopropazine], the melting point came to 53 °C.

`CC(=O)SCC(Cc1ccccc1)C(=O)NCC(=O)OCc1ccccc1` (configuration not stated) [acetorphan] had a melting point of 89 °C.

With `Nc1ccc(N)cc1` [Benzene-1,4-diamine], the melting point amounted to 140 °C.

The compound `Clc1cc(Cl)c(-c2ccc(Cl)c(Cl)c2Cl)cc1Cl` [PCB-138] yielded a melting point of 79 °C.

In turn, `CC(Br)C(C)(C)Br` (configuration not stated) [2,3-dibromo-2-methylbutane] came in with a melting point of 15 °C.

Compound `O=C1C(c2ccccc2)=C(c2ccccc2)C(c2ccccc2)=C1c1ccccc1` [2,3,4,5-Tetraphenylcyclopenta-2,4-dien-1-one] gave a melting point of 218 °C.

In turn, `Cc1c(C)c(C)c2c(c1C)CC2=O` [2,3,4,5-Tetramethylbicyclo(4.2.0)octa-1,3,5-trien-7-one] showed a melting point of 161 °C.

Compound `CCCCCCCCCCCCCCCCCCCC(=O)O` [arachidic acid] came in with a melting point of 75 °C.

On to `c1ccc2[nH]ccc2c1` [indole], for which the melting point was determined as 52 °C.

`O=C(O)/C=C/c1ccccc1O` [trans-2-hydroxycinnamic acid] registered a melting point of 217 °C.

In the case of `O=S(=O)(Nc1ccc(Cl)cc1)c1ccccc1` [4-chloro-1-phenylsulfonamidobenzene], the melting point worked out at 122 °C.

In turn, `CCC=O` [propionaldehyde] showed a melting point of -81 °C.

`N#CCC(=O)O` [cyanoacetic acid]: the melting point came out at 67 °C.

In turn, `Cc1cccc(O)c1` [m-cresol] showed a melting point of 12 °C.

With `CCCC#N` [butyronitrile], the melting point was -112 °C.

`CCn1cc(C(=O)O)c(=O)c2ccc(C)nc21` displayed a melting point of 230 °C.

`CCCCCCCC/C=CCCCCCCCC(=O)O` [oleic acid]: the melting point stood at 14 °C.

In turn, `NCCOB(c1ccccc1)c1ccccc1` [2-aminoethyl diphenylborinate] gave a melting point of 189 °C.

Consider `CCc1ccc(CC)cc1` [1,4-diethylbenzene], for which the melting point is -43 °C.

As to `O=[N+]([O-])c1cc(Br)ccc1Br` [1,4-dibromo-2-nitrobenzene], the melting point amounted to 84 °C.

Regarding `CC(=O)OC1CCC2(C)C(CCC3C2CCC2(C)C3CCC2(O)CCc2ccccc2)C1` (configuration not stated) [17-hydroxy-21-phenylpregnan-3-yl acetate], the melting point is 138 °C.

For `CCC1(CCC(C)C)C(=O)NC(=O)NC1=O` [amobarbital], the melting point came to 156 °C.

On to `COC(=O)c1ccc(N)c(N)c1` [methyl 3,4-diaminobenzoate], for which the melting point worked out at 107 °C.

`CC(=O)Oc1ccccc1C(=O)O` [o-acetylsalicylic acid] came in with a melting point of 138 °C.

`CCN1CCCC1CNC(=O)c1cc(S(N)(=O)=O)ccc1OC` (configuration not stated) [sulpiride] gave a melting point of 179 °C.

With `CN1CCCN(C)C1=O` [1,3-dimethyl-3,4,5,6-tetrahydro-2(1h)-pyrimidinone], the melting point is -23 °C.

In turn, `[C-]#[O+]` [Carbon monooxide] yielded a melting point of -205 °C.

In turn, `CC#CCO` [2-butyn-1-ol] had a melting point of -2 °C.

Regarding `N#Cc1ccccc1N` [2-aminobenzonitrile], the melting point came out at 48 °C.

As for `CCCCI` [1-Iodobutane], the melting point was -103 °C.

`CN(C)[C@@H]1C(O)=C(C(N)=O)C(=O)[C@@]2(O)C(O)=C3C(=O)c4c(O)cccc4[C@@](C)(O)[C@H]3C[C@@H]12` [Tetracycline]: the melting point is 165 °C.

Compound `CCC(=O)O[C@]1(C(=O)SCF)[C@H](C)C[C@H]2[C@@H]3C[C@H](F)C4=CC(=O)C=C[C@]4(C)[C@@]3(F)[C@@H](O)C[C@@]21C` [Fluticasone Propionate] yielded a melting point of 272 °C.

On to `Clc1cccc2cc3ccccc3cc12` [1-chloroanthracene], for which the melting point was found to be 77 °C.

For the compound `CCC1(c2ccccc2)NC(=O)N(C)C1=O` (configuration not stated) [mephenytoin], the melting point was 135 °C and 136 °C.

Regarding `Cc1ccc(C)c(O)c1` [2,5-dimethylphenol], the melting point was 76 °C.

These data come from the Bradley open melting point set (2014).
